From US4314998A, “6-Deoxyglucosamine-peptide derivatives, their production and use” (Takeda Chemical Industries, Ltd., priority 1979, dated 1982)

Tested on: Meth-A fibrosarcoma cells
Assay: Inhibition of growth of Meth-A fibrosarcoma in mice (compound mixed with tumor cells)
Assay type: in vivo
Conditions: 100 μg mixed with 5×10^4 Meth-A fibrosarcoma cells, intracutaneous, female Balb/C mice
Procedure: For example, 100 μg of the compounds obtained in accordance with the present invention suspended in a phosphate-buffered saline and mixed with 5×10^4 Meth-A fibrosarcoma cells, followed by intracutaneous administration to female Balb/C mice. The effects to inhibit the growth of Meth-A were examined at 1 week intervals until the 4th week after the administration.

Measured: The number of tumor-free mice/the number of mice tested

2-(2-acetamido-2,6-dideoxy-6-mycoloylamino-D-glucopyranos-3-O-yl)-D-propionyl-L-alanyl-D-isoglutamine [Example 7]
10/10: week 2 | week 3 | week 4

2-(2-acetamido-2,6-dideoxy-6-mycoloylamino-D-glucopyranos-3-O-yl)-D-propionyl-L-valyl-D-isoglutamine [Example 9]
10/10: week 1 | week 2 | week 3 | week 4
